{"source": "patent US8309535B2", "about": "“Compositions and methods to treat recurrent medical conditions” (priority 2003, dated 2012)", "key": {"[1]": {"conditions": "cited from earlier work"}, "[2]": {"test_system": "subjects on chronic dosing schedules (chronically ill with tuberculosis)", "conditions": "500-1000 mg/day, side effects correlate with dosage amount; cited from earlier work"}, "[3]": {"test_system": "subjects having specific phobias", "conditions": "cited from earlier work"}, "[4]": {"test_system": "subject afflicted with recurring neuropathic pain", "assay": "Example 1: treatment of a subject with recurring neuropathic pain", "format": "in vivo, human", "protocol": "After seven days, the dose of amitriptyline was doubled to 20 mg."}, "[5]": {"test_system": "subject with paralytic sexual performance anxiety", "conditions": "subject unresponsive to purely behavioral interventions; cited from earlier work"}}, "note": "Structures can show the parent of a compound that is named as a salt.", "data": [{"molecule": "N[C@@H]1CON=C1O", "note": "[DCS, D-cycloserine]", "values": [{"measurement": "time of peak blood levels after dosing", "setting": "[1]; after dosing", "result": "3 to 8", "unit": "h"}, {"measurement": "half-life", "setting": "[1]; in vivo", "result": 10, "unit": "h"}, {"measurement": "infrequent side effects", "setting": "[2]", "result": "drowsiness, headache, confusion, tremor, vertigo, and memory difficulties, paresthesias, and seizure"}, {"measurement": "average number of psychotherapy sessions to reach a clinical cure", "setting": "[3]; DCS in conjunction with psychotherapy, psychotherapy alone required an average of eight sessions", "result": "two"}, {"measurement": "fewer therapy sessions needed to reach clinical cure", "setting": "[3]; DCS with cognitive behavioral therapy sessions, phobic disorders", "result": 75, "unit": "%"}]}, {"molecule": "CN(C)CCC=C1c2ccccc2CCc2ccccc21", "note": "[amitriptyline hydrochloride]", "values": [{"measurement": "effect on pain", "setting": "[4]; 10 mg per day for seven days", "result": "little effect on the pain"}, {"measurement": "effect on pain", "setting": "[4]; 20 mg per day, after two days on the higher dose", "result": "substantially subsided"}]}, {"molecule": "CCCc1nn(C)c2c(=O)[nH]c(-c3cc(S(=O)(=O)N4CCN(C)CC4)ccc3OCC)nc12", "note": "[sildenafil]", "values": [{"measurement": "response to pharmaceutical treatment", "setting": "[5]", "result": "responded to pharmaceutical treatment"}]}]}
